Earlier results as cited in patent US20250129016A1, “[…] FOR RADI[…] ARENES AND USE THEREOF” (THE UNIVERSITY OF NORTH CAROLINA AT CHAPEL HILL, priority 2023, published 2025).

Conditions: previously reported

In the case of `COc1cc2c(c(OC)c1OC)-c1ccc(OC)c(=O)cc1[C@@H](NC(C)=O)CC2` [39a, Colchicine], the route of excretion is listed as “excreted primarily through the biliary system, intestines, and kidneys”.
